These are literature values, as cited in patent US20170326065A1, “METHODS AND COMPOSITION FOR TREATMENT OF CARDIOVASCULAR CONDITIONS” (Ezra Pharma LLC, priority 2016, published 2017).

The structures appear in SMILES notation.

By Tmax is commonly meant the time from dosing to the highest level. In the case of `CCCCC(=O)N(Cc1ccc(-c2ccccc2-c2nnn[nH]2)cc1)[C@H](C(=O)O)C(C)C` [valsartan], the “T1/2 alpha phase of elimination” value (biphasic elimination, rapid alpha phase) was 1 to 2 h. Further, the “T1/2 beta phase of elimination” value (biphasic elimination, slow beta phase, in h) is 7-8. In addition, the “peak plasma concentration reduced to” value (by 12 hours, marketed immediate release formulation) is “approximately 65%”. For the same compound, under “oral administration, printed range (10-35%)”, the absolute bioavailability result is given as “about 25%”. The half-life entry (valsartan) is recorded as “about 6 hours”. For the same compound, under “valsartan, oral”, the Tmax is 2 to 4 h.
